Assays:
Assay type in all cases: cell-based
NCI-H226 = assay: cell viability of NCI-H226 cells, 1 and 10 uM; details: Homo sapiens
Experimental: [Worded in the source for another cell line; this cell line is reported under the same test.] (§1) Sorafenib (Nexavar), erlotinib (Tarceva) and Paclitaxel were kindly provided by Bayer Pharmaceuticals (Pittsburgh, Pa., USA) and Roche Pharmaceuticals (Basel, Switzerland) respectively. Okadaic acid (OA) was purchased from Cayman Chemical (Ann Arbor, Mich., USA) and z-VAD-fmk was obtained from Sigma (St. Louis, Mo., USA). For in vitro studies, drugs at various concentrations were dissolved in dimethyl sulfoxide (DMSO), and added to cells in Dulbecco's modified Eagle's medium (DMEM) or Roswell Park Memorial Institute (RPMI) containing 5% fetal bovine serum (FBS).
(§2) The Sk-Hep1, PLC/PRF/5 (PLC) and Hep3B cell lines were obtained from American Type Culture Collection (ATCC; Manassas, Va., USA). The Huh-7 HCC cell line was obtained from the Health Science Research Resources Bank (HSRRB; Osaka, Japan; JCRB0403). Cells were maintained in DMEM supplemented with 10% FBS in a 37° C. humidified incubator in an atmosphere of 5% CO^2 in air.

NCI-1703 = assay: cell viability of NCI-1703 cells, 1 and 10 uM of each erlotinib derivative, and IC50; details: Homo sapiens; for IC50: cell viability
Experimental: [Worded in the source for another cell line; this cell line is reported under the same test.] as §1, §2

A549 = assay: cell viability of A549 cells, 1 and 10 uM; details: Homo sapiens
Experimental: [Worded in the source for another cell line; this cell line is reported under the same test.] as §1, §2

H358 = assay: cell viability of H358 cells, 1 and 10 uM; details: Homo sapiens, NCI-H358
Experimental: [Worded in the source for another cell line; this cell line is reported under the same test.] as §1, §2

H2170 = assay: cell viability of H2170 cells, 1 and 10 uM; details: Homo sapiens, NCI-H2170
Experimental: [Worded in the source for another cell line; this cell line is reported under the same test.] as §1, §2

H520 = assay: cell viability of H520 cells, 1 and 10 uM; details: Homo sapiens, NCI-H520
Experimental: [Worded in the source for another cell line; this cell line is reported under the same test.] as §1, §2

SW900 = assay: cell viability of SW900 cells, 1 and 10 uM; details: Homo sapiens
Experimental: [Worded in the source for another cell line; this cell line is reported under the same test.] as §1, §2

| Structure (SMILES) | viability at 1 µM (NCI-H226) | viability at 1 µM (NCI-1703) | viability at 1 µM (A549) | viability at 1 µM (H358) | viability at 1 µM (H2170) | viability at 10 µM (H2170) | viability at 1 µM (H520) | viability at 10 µM (H520) | viability at 10 µM (NCI-H226) | viability at 10 µM (NCI-1703) | viability at 10 µM (A549) | viability at 1 µM (SW900) | viability at 10 µM (SW900) | viability at 10 µM (H358) | IC50 (NCI-1703) |
| --- | --- | --- | --- | --- | --- | --- | --- | --- | --- | --- | --- | --- | --- | --- | --- |
| NS(=O)(=O)c1ccc(Nc2nc3ccc([N+](=O)[O-])cc3nc2Nc2ccc(S(N)(=O)=O)cc2)cc1 [TD629, N^2,N^3-bis(4-phenylsulfonamide)-6-nitroquinoxaline-2,3-diamine] | 140 ± 1.6% | 132.8 ± 1% | 118 ± 1.2% | 113 ± 3.6% | – | – | – | – | – | – | – | – | – | – | – |
| C#Cc1cccc(Nc2nc3cc([N+](=O)[O-])ccc3nc2Nc2ccc(O)cc2C)c1 [TD625, 4-(2-(3-ethynylphenylamino)-7-nitroquinoxalin-3-ylamino)-3-methylphenol] | 115 ± 7.2% | 224 ± 7% | 73.7 ± 3% | 92.6 ± 7.4% | – | – | – | – | – | – | – | – | – | – | – |
| O=[N+]([O-])c1ccc2nc(Nc3cccc(O)c3)c(Nc3cccc(O)c3)nc2c1 [TD613, 3-(2-(3-hydroxyphenylamino)-6-nitroquinoxalin-3-ylamino)phenol] | 75.5 ± 7.9% | 86 ± 0.5% | 105 ± 3.4% | 69.9 ± 60.7% | 108 ± 1.99% | 11.6 ± 1.38% | 99.45 ± 0.5% | 18.8 ± 0.22% | 7 ± 0.3% | 24.8 ± 2% | 9.5 ± 0.7% | 116 ± 7.2% | 80.9 ± 3.8% | 12 ± 0.5% | – |
| FC(F)(F)c1cc(Nc2nc3ccccc3nc2Cl)ccc1Cl [TD79, 3-chloro-N-(4-chloro-3-(trifluoromethyl)phenyl)quinoxalin-2-amine] | 131 ± 14.3% | 123.7 ± 0.9% | 96.5 ± 4.4% | 114 ± 2.4% | 98.5 ± 1.56% | 102 ± 5.66% | 96.6 ± 5.57% | 99 ± 6.01% | 125 ± 10.5% | 64.8 ± 4.5% | 71.6 ± 10.1% | 98.9 ± 3.79% | 88.2 ± 19.9% | 87.7 ± 1.8% | – |
| Clc1cccc(Nc2nc3ccccc3nc2Nc2cccc(Cl)c2)c1 [TD56, N^2,N^3-bis(3-chlorophenyl)quinoxaline-2,3-diamine] | 115.4 ± 0.8% | 49.9 ± 4.7% | – | – | 95 ± 0.91% | 32.5 ± 14.1% | 98.4 ± 6.37% | 4.76 ± 0.24% | 19 ± 2% | 28.8 ± 2.3% | – | 118 ± 5.41% | 1.46 ± 3.6% | – | – |
| COc1ccc(Nc2nc3ccc([N+](=O)[O-])cc3nc2Nc2ccc(F)cc2)cc1 [TD631, N^3-(4-fluorophenyl)-N^2-(4-methoxyphenyl)-6-nitroquinoxaline-2,3-diamine] | 35.8 ± 6.9% | 42.5 ± 2.8% | 58.9 ± 3.1% | 40.4 ± 1.9% | – | – | – | – | – | – | – | – | – | – | – |
| COc1ccc(Nc2nc3ccc([N+](=O)[O-])cc3nc2Nc2ccc(C(F)(F)F)cc2)cc1 [TD626, N^3-(4-(trifluoromethyl)phenyl)-N^2-(4-methoxyphenyl)-6-nitroquinoxaline-2,3-diamine] | 39 ± 2.2% | 111 ± 1.3% | 40.4 ± 0.8% | 24.3 ± 3.6% | – | – | – | – | – | – | – | – | – | – | – |
| c1ccc(CNc2nc3ccccc3nc2NCc2ccccc2)cc1 [TD54, N^2,N^3-dibenzylquinoxaline-2,3-diamine] | 120 ± 4.9% | 127 ± 2% | – | – | 100 ± 4.93% | 79.1 ± 7.69% | 118 ± 3% | 102 ± 1.46% | 110.9 ± 0.8% | 96.7 ± 4.2% | – | 125 ± 27% | 126 ± 10.6% | – | – |
| Cc1cc(Nc2nc3ccc([N+](=O)[O-])cc3nc2Nc2ccc(O)cc2)n[nH]1 [TD628, 4-(2-(5-methyl-1H-pyrazol-3-ylamino)-6-nitroquinoxalin-3-ylamino)phenol] | 152 ± 1.7% | 147 ± 4.5% | – | 140 ± 7.3% | – | – | – | – | – | – | – | – | – | – | – |
| c1ccc(Oc2ccc(Nc3nc4ccccc4nc3Nc3ccc(Oc4ccccc4)cc3)cc2)cc1 [TD53, N^2,N^3-bis(4-phenoxyphenyl)quinoxaline-2,3-diamine] | 86.2 ± 5.7% | 68.4 ± 1.4% | 99.4 ± 6.9% | 120 ± 9.2% | 99.7 ± 6% | 59.2 ± 1.25% | 101.7 ± 0.34% | 10.6 ± 0.58% | 56.8 ± 2.7% | 46.7 ± 0.2% | 82.7 ± 99.9% | 121 ± 9.01% | – | 41.9 ± 3.9% | 7.4 µM |
| O=[N+]([O-])c1ccc2nc(Nc3ccc(Cl)c(F)c3)c(Nc3ccc(Cl)c(F)c3)nc2c1 [TD624, N^2,N^3-bis(4-chloro-3-fluorophenyl)-6-nitroquinoxaline-2,3-diamine] | 15.7 ± 0.8% | 90.8 ± 4.8% | 14.3 ± 3.6% | 11.9 ± 1% | – | – | – | – | – | – | – | – | – | – | – |
| N#CCc1ccc(Nc2nc3ccccc3nc2Nc2ccc(CC#N)cc2)cc1 [TD62, 2,2′-((quinoxaline-2,3-diylbis(azanediyl))bis(4,1-phenylene))diacetonitrile] | 86 ± 2% | 112 ± 3.6% | 166 ± 23.1% | 121 ± 2.2% | 92.5 ± 1.41% | 85.3 ± 4.56% | 103 ± 1.7% | 100 ± 2.46% | 90.1 ± 8.2% | 65.2 ± 0.6% | 120 ± 29% | 128 ± 1.8% | 128 ± 6.18% | 97.4 ± 8.1% | – |
| O=[N+]([O-])c1ccc2nc(Nc3ccc(F)cc3)c(Nc3ccc(F)cc3)nc2c1 [TD620, N^2,N^3-bis(4-fluorophenyl)-6-nitroquinoxaline-2,3-diamine] | 132 ± 5% | 26.2 ± 0.6% | 48.7 ± 8.4% | 24.2 ± 1.4% | – | – | – | – | 17.9 ± 0.6% | 21 ± 1.7% | 7.8 ± 0.4% | – | – | 12.6 ± 0.7% | 0.3 µM |
| c1ccc(Nc2nc3ccccc3nc2Nc2ccccc2)cc1 [TD55, N^2,N^3-diphenylquinoxaline-2,3-diamine] | 106 ± 17.3% | 64.2 ± 5.3% | 100 ± 7.2% | 110 ± 14.2% | 102.7 ± 0.73% | 94.8 ± 6.05% | 89.9 ± 1.02% | 59.2 ± 15.8% | 96.4 ± 7.4% | 49.9 ± 4.8% | 36.5 ± 5.9% | 100 ± 6.69% | 88.3 ± 1.29% | 42.1 ± 0.6% | 8.3 µM |
| Cc1ccc(F)c(Nc2nc3ccccc3nc2Nc2cc(C)ccc2F)c1 [TD58, N^2,N^3-bis(2-fluoro-5-methylphenyl)quinoxaline-2,3-diamine] | 123 ± 3.6% | 127 ± 2.9% | – | – | 92.8 ± 2.03% | 83 ± 3.41% | 96.2 ± 1.22% | 95.6 ± 4.66% | 74.9 ± 1.5% | 98.9 ± 1.1% | – | 111 ± 1.54% | 91.8 ± 9.78% | – | – |
| COC(=O)c1ccc2nc(Nc3ccc(OC(F)(F)F)cc3)c(Nc3ccc(OC(F)(F)F)cc3)nc2c1 [TD94, methyl 2,3-bis((4-(trifluoromethoxy)phenyl)amino)quinoxaline-6-carboxylate] | 32.1 ± 2.7% | 29.9 ± 6.8% | 49 ± 6.5% | 13 ± 0.2% | – | – | – | – | 8 ± 0.1% | 19.5 ± 1.1% | 10.8 ± 0.9% | – | – | 15.7 ± 5.9% | 0.1 µM |

From patent US10189795B2, “Aryl amine substituted quinoxaline used as anticancer drugs” (priority 2014, dated 2019)
